Source: ChEMBL document CHEMBL1150212, “Antitumor agents, 129. Tannins and related compounds as selective cytotoxic agents” (1992)

Assays:
Type in all cases: functional
Settings in all cases: read-out: ED50 (the source's name)
[1] = Cytotoxicity against human […] cells by tetrazolium salt-based colorimetric assay
KB = assay: Cytotoxicity against human KB cells by tetrazolium salt-based colorimetric assay
A549 = assay: Cytotoxicity against human A549 cells by tetrazolium salt-based colorimetric assay
HCT-8 = assay: Cytotoxicity against human HCT8 cells by tetrazolium salt-based colorimetric assay
TE-671 = assay: Cytotoxicity against human TE671 cells by tetrazolium salt-based colorimetric assay

Row | Compound | EC50 [1] [µg/mL] | EC50 (KB) [µg/mL] | EC50 (A549) [µg/mL] | EC50 (HCT-8) [µg/mL] | EC50 (TE-671) [µg/mL]
1 | Oc1cc(O)c2c(c1)O[C@H](c1ccc(O)c(O)c1)[C@H](O)[C@H]2c1c(O)cc(O)c2c1O[C@@]1(c3ccc(O)c(O)c3)Oc3cc(O)c4c(c3[C@@H]2[C@H]1O)O[C@H](c1ccc(O)c(O)c1)[C@H](O)[C@H]4c1c(O)cc(O)c2c1O[C@H](c1ccc(O)c(O)c1)[C@H](O)C2 [CINNAMTANNIN B2] | 0.66 | > 10 | > 10 | > 10 | > 10
2 | O=C1O[C@@H]2[C@@H](OC(=O)c3cc(O)c(O)c(O)c3-c3c1cc(O)c(O)c3O)[C@H](O)O[C@@H]1COC(=O)c3cc(O)c(O)c(O)c3-c3c(O)c(O)c4oc(=O)c5c(c(O)c(O)c6oc(=O)c3c4c65)-c3c(cc(O)c(O)c3O)C(=O)O[C@@H]21 [PUNICALAGIN] | > 10 | > 10 | > 10 | > 10 | > 10
3 | O=C(OC[C@H]1O[C@@H](OC(=O)c2cc(O)c(O)c(O)c2)[C@H](O)[C@@H](O)[C@@H]1OC(=O)c1cc(O)c(O)c(O)c1)c1cc(O)c(O)c(O)c1 | > 10 | > 10 | > 10 | > 10 | > 10
4 | O=C(O[C@@H]1[C@@H](c2c(O)cc(O)c3c2O[C@H](c2ccc(O)c(O)c2)[C@H](OC(=O)c2cc(O)c(O)c(O)c2)C3)c2c(O)cc(O)cc2O[C@@H]1c1ccc(O)c(O)c1)c1cc(O)c(O)c(O)c1 | 3.45 | > 10 | > 10 | > 10 | > 10
5 | O=C(O)C1=C[C@@H](O)[C@@H](O)[C@H](OC(=O)c2cc(O)c(O)c(OC(=O)c3cc(O)c(O)c(O)c3)c2)C1 | > 10 | > 10 | > 10 | > 10 | > 10
6 | O=C(O)c1cc(O)c(O)c(Oc2cc3c(c(O)c2O)-c2c(cc(O)c(O)c2O)C(=O)OC[C@H]2O[C@@H](OC(=O)c4cc(O)c(O)c(O)c4)[C@H](OC(=O)c4cc(O)c(O)c(O)c4)[C@@H](OC(=O)c4cc(O)c(O)c(O)c4)[C@@H]2OC3=O)c1 | 0.44 | > 10 | > 10 | > 10 | > 10
7 | Oc1cc(O)c2c(c1)O[C@H](c1ccc(O)c(O)c1)[C@H](O)[C@H]2c1c(O)cc(O)c2c1O[C@H](c1ccc(O)c(O)c1)[C@H](O)[C@H]2c1c(O)cc(O)c2c1O[C@H](c1ccc(O)c(O)c1)[C@H](O)C2 [PROCYANIDIN C1] | > 10 | > 10 | > 10 | > 10 | > 10
8 | O=C1O[C@H]2[C@H](O)[C@@H](CO)OC(O)[C@@H]2OC(=O)c2cc(O)c(O)c(O)c2-c2c1cc(O)c(O)c2O (stereo not given in full) | > 10 | > 10 | > 10 | > 10 | > 10
9 | Oc1cc(O)c2c(c1)O[C@@]1(c3ccc(O)c(O)c3)Oc3cc(O)c4c(c3[C@@H]2[C@H]1O)O[C@H](c1ccc(O)c(O)c1)[C@H](O)[C@H]4c1c(O)cc(O)c2c1O[C@H](c1ccc(O)c(O)c1)[C@H](O)C2 [CINNAMTANNIN B1] | 3.57 | > 10 | > 10 | > 10 | > 10
10 | O=C(OC[C@H]1O[C@@H](OC(=O)c2cc(O)c(O)c(O)c2)[C@H](OC(=O)c2cc(O)c(O)c(O)c2)[C@@H](O)[C@@H]1O)c1cc(O)c(O)c(O)c1 | > 10 | > 10 | > 10 | > 10 | > 10
11 | O=C(O[C@@H]1O[C@H](CO)[C@@H](O)[C@H](O)[C@H]1O)c1cc(O)c(O)c(O)c1 | > 10 | > 10 | > 10 | > 10 | > 10
12 | O=C1O[C@H]2[C@H](OC(=O)c3cc(O)c(O)c(O)c3)[C@@H](OC(=O)c3cc(O)c(O)c4c3[C@@H]3C1=CC(=O)C(O)(O)C3(O)O4)[C@H](OC(=O)c1cc(O)c(O)c(O)c1)O[C@@H]2COC(=O)c1cc(O)c(O)c(O)c1 (stereo not given in full) [TERCHEBIN] | > 10 | > 10 | > 10 | > 10 | > 10
13 | O=C1O[C@H]2[C@@H]3OC(=O)c4cc(Oc5c(C(=O)O)cc(O)c(O)c5O)c(O)c(O)c4-c4c(cc(O)c(O)c4O)C(=O)OC[C@H]2O[C@@H](OC(=O)c2cc(O)c(O)c(O)c2)[C@@H]3OC(=O)c2cc(O)c(O)c3c2[C@@H]2C1=CC(=O)[C@](O)(O3)C2(O)O [MALLOTUSINIC ACID] | > 10 | > 10 | > 10 | > 10 | > 10
14 | O=C(O[C@@H]1C[C@](OC(=O)c2cc(O)c(O)c(O)c2)(C(=O)O)C[C@@H](OC(=O)c2cc(O)c(O)c(O)c2)[C@H]1OC(=O)c1cc(O)c(O)c(O)c1)c1cc(O)c(O)c(O)c1 | 0.43 | > 10 | > 10 | > 10 | > 10
15 | O=C(O[C@H]1[C@H](O)C[C@](O)(C(=O)O)C[C@H]1O)c1cc(O)c(O)c(O)c1 | > 10 | > 10 | > 10 | > 10 | > 10
16 | O=C(O[C@@H]1[C@@H](c2c(O)cc(O)c3c2O[C@H](c2ccc(O)c(O)c2)[C@H](OC(=O)c2cc(O)c(O)c(O)c2)C3)c2c(O)cc(O)c([C@H]3c4c(O)cc(O)cc4O[C@H](c4ccc(O)c(O)c4)[C@@H]3OC(=O)c3cc(O)c(O)c(O)c3)c2O[C@@H]1c1ccc(O)c(O)c1)c1cc(O)c(O)c(O)c1 | 3.05 | > 10 | > 10 | > 10 | > 10
17 | O=C(O[C@H]1[C@H](O)C[C@](O)(C(=O)O)C[C@H]1OC(=O)c1cc(O)c(O)c(O)c1)c1cc(O)c(O)c(O)c1 | 0.53 | > 10 | > 10 | > 10 | > 10
18 | O=C(O[C@@H]1O[C@@H]2COC(=O)c3cc(O)c(O)c(O)c3-c3c(cc(O)c(O)c3O)C(=O)O[C@H]([C@H]1OC(=O)c1cc(O)c(O)c(O)c1)[C@@H]2OC(=O)c1cc(O)c(O)c(O)c1)c1cc(O)c(O)c(O)c1 [PUNICAFOLIN] | > 10 | > 10 | > 10 | > 10 | > 10
19 | Oc1cc(O)c2c(c1)O[C@@]1(c3ccc(O)c(O)c3)Oc3cc(O)c4c(c3[C@@H]2[C@H]1O)O[C@H](c1ccc(O)c(O)c1)[C@H](O)C4 [PROANTHOCYANIDIN A2] | 5.5 | > 10 | > 10 | > 10 | > 10
20 | Oc1cc(O)c2c(c1)O[C@H](c1ccc(O)c(O)c1)[C@H](O)C2 [(-)-EPICATECHIN] | > 10 | > 10 | > 10 | > 10 | > 10
21 | O=C(O)C[C@@H]1C(=O)O[C@H]2[C@@H]3OC(=O)c4cc(O)c(O)c(O)c4-c4c(cc(O)c(O)c4O)C(=O)OC[C@H]2O[C@@H](OC(=O)c2cc(O)c(O)c(O)c2)[C@@H]3OC(=O)c2cc(O)c(O)c3c2[C@H]1[C@H](O)C(=O)O3 [CHEBULAGIC ACID] | 0.8 | > 10 | > 10 | > 10 | > 10
22 | O=C(O[C@@H]1O[C@@H]2COC(=O)c3cc(O)c(O)c(O)c3-c3c(cc(O)c(O)c3O)C(=O)O[C@H]2[C@H](OC(=O)c2cc(O)c(O)c(O)c2)[C@H]1OC(=O)c1cc(O)c(O)c(O)c1)c1cc(O)c(O)c(O)c1 [EUGENIIN] | 2.74 | > 10 | > 10 | > 10 | > 10
23 | O=C(OC[C@H]1O[C@@H](OC(=O)c2cc(O)c(O)c(O)c2)[C@H](OC(=O)c2cc(O)c(O)c(O)c2)[C@@H](OC(=O)c2cc(O)c(O)c(O)c2)[C@@H]1OC(=O)c1cc(O)c(O)c(O)c1)c1cc(O)c(O)c(O)c1 [PENTAGALLOYL GLUCOSE] | 5.01 | > 10 | > 10 | > 10 | > 10
24 | O=C(O[C@H]1[C@H](O)C[C@](OC(=O)c2cc(O)c(O)c(O)c2)(C(=O)O)C[C@H]1OC(=O)c1cc(O)c(O)c(O)c1)c1cc(O)c(O)c(O)c1 | > 10 | > 10 | > 10 | > 10 | > 10
25 | O=C1OC[C@H]2O[C@@H](O)[C@H](O)[C@@H](O)[C@@H]2OC(=O)c2cc(O)c(O)c(O)c2-c2c(O)c(O)c3oc(=O)c4c(c(O)c(O)c5oc(=O)c2c3c54)-c2c1cc(O)c(O)c2O [PUNICALIN] | > 10 | > 10 | > 10 | > 10 | > 10
26 | O=C(O[C@@H]1O[C@@H]2COC(=O)c3cc(O)c(O)c(O)c3-c3c(cc(O)c(O)c3O)C(=O)O[C@H]([C@H]1O)[C@@H]2O)c1cc(O)c(O)c(O)c1 [CORILAGIN] | > 10 | > 10 | > 10 | > 10 | > 10
27 | O=C(OC[C@H]1O[C@@H](OC(=O)c2cc(O)c(O)c(O)c2)[C@H](OC(=O)c2cc(O)c(O)c(O)c2)[C@@H](OC(=O)c2cc(O)c(O)c(O)c2)[C@@H]1O)c1cc(O)c(O)c(O)c1 | > 10 | > 10 | > 10 | > 10 | > 10
